# Reference: patent US20160039852A1, “THERAPEUTIC USES OF BISPHOSPHONATES” (THE UNIVERSITY OF SHEFFIELD, priority 2013, published 2016)
# Read-outs that look alike come from different tables or passages of the source.
# Experiments:
# [1] = test system: human mesenchymal stem cells (hMSC); assay: hMSC growth kinetics, cumulative population doublings with time in culture; type: cell-based; details: for population doublings after which cultures stopped proliferating: hMSC, from the start of the treatment, PBS cultures senesced after 21-25 PDs, n=3; for hMSC life span / time of proliferation in culture: versus PBS control
# [2] = test system: human mesenchymal stem cells (hMSC); assay: Immunostaining of γH2AX DNA damage foci (double stranded breaks) in hMSC; type: cell-based; details: for number of γH2AX DNA damage foci after irradiation: 1Gy irradiation, compound at 1 μM, foci at 4 h (Zol also 12, 24 h) versus PBS; for effect of Zol on DNA damage after addition of prenylation intermediate: 1Gy, Zol plus FOH or GGOH (33 μM)
# Experimental: DNA damage was induced by exposing hMSC to ^137Cs Gamma source. Cells were washed with PBS and fixed with 4% Para-formaldehyde for […]. Cells were then washed with PBS permeabilized with 0.5% Triton-X (Sigma, UK) for […] and blocked with 5% normal goat serum (DAKO, Glostrup, Denmark) in PBS for 1 hr. This was followed by incubation with primary antibody, anti-phospho histone H2AX (Ser139) (Millipore, Massachusetts, USA) used at 1:800 in 5% normal goat serum, overnight at 4° C. Cells were then washed in PBS and incubated in secondary Anti mouse IgG Fluorescein Isothiocyanate (FITC) conjugated (Insight Biotechnology, Santa Cruz, USA) at 1:200 in PBS for 1 hour at room temperature. The cover-slips were mounted on slides with mounting media (VectaShield) containing 4',6-diamidino-2-phenylindole (DAPI) to stain the nuclei. […] Cells were viewed using in an Inverted Zeiss LSM 510 NLO microscope equipped with Argon (Ar) laser (488 nm) 30 mW to image the fluorescent marker FITC and UV lamp to image DAPI stained nuclei. Five to seven fields consisting of 25 cells in total were randomly selected from a tile scan (20×) and individual cells viewed at 63× were then scored for γH2AX DNA damage foci using ImageJ 1.45 software (http://rsbweb.nih.gov/ij/). One of the factors affecting cellular lifespan is accumulation of DNA damage.
# [3] = target: T1, FPP synthase (Homo sapiens, UniProt P14324); assay: Prenyl synthase assay (FPP synthase activity); type: biochemical
# T1 sequence (P14324 1-419): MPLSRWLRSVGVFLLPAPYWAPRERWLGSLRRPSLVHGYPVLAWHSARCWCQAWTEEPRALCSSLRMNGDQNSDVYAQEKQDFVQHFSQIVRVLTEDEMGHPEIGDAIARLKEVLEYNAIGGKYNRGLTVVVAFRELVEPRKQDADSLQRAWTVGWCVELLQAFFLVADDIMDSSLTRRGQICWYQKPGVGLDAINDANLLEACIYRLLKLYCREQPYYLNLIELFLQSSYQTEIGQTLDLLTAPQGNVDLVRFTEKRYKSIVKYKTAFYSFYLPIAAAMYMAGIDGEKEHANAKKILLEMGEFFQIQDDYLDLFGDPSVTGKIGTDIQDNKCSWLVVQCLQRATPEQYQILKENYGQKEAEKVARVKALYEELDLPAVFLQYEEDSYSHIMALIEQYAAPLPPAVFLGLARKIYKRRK
# Experimental: FPP synthase activity was measured by the method of Reed and Rilling (Reed, B. C. & Rilling, H. C. (1976) Biochemistry 15, 3739-3745) with modifications. Assays were set up such that the final volume was 100 ul. The assay conditions were 50 mM Tris pH7.7, 2 mM MgCl2, 0.5 mM TCEP, 20 μg/ml BSA. For FPP synthase assays the final enzyme concentration was 10 nM. All substrates were at 10 μM final concentration each substrate, all reactions were with IPP (14C-IPP, 400Kq/μMol American Radiochem. Corp). For FPP synthase GPP was the second substrate. Bisphosphonate was added as 1/10th volume of a 10× stock solution and allowed to preincubate for 10 minutes with the enzyme in a volume of 80 ul and the reaction started by the addition of 20 ul of the combined substrate. The reaction was allowed to proceed for 4 minutes at 37° C. before being terminated by the addition of 0.2 ml of conc. HCI/Methanol (1:4) and incubated for a further 10 mins at 37° C. The reaction mixtures were then extracted with 0.4 ml of immiscible scintillation fluid (Microscint E, Perkin Elmer) to separate reaction products from unused substrate and were counted directly with a microbeta scintillation counter (Perkin Elmer).
# [4] = test system: zebrafish embryo caudal fin; assay: Zebrafish tail amputation and regeneration following irradiation; type: in vivo, Zebrafish (Danio Rerio H); details: irradiated embryos, Zol plus FOH or GGOH
# Experimental: Embryos from wild-type Zebrafish (Danio Rerio H) AB strain were collected at 16 cell stage (˜1.5 hours post fertilisation (hpf)) and grown in E3 Medium at 28° C. Embryos were treated with Zoledronate (1 μM) and/or FOH, GGOH at 24 hpf. DNA damage was induced by exposure to ^137Cs Gamma source at 48 hpf and after irradiation the embryo tails were amputated and the embryos were then incubated at 28° C. for a further 12 hrs in the presence of the chemicals. At the end of this period the chemicals were washed off and the embryos were incubated in fresh medium with no chemicals. The embryos were grown up to 120 hpf, following which they were fixed in 4% PFA overnight and then mounted in 100% glycerol. The tail lengths of embryos were measured taking the anal region as starting reference point and the end of the fin fold as the ending point of measurement.
compound,measurement,setting,value
NCCCC(O)(P(=O)(O)O)P(=O)(O)O [Alendronate],population doublings after which cultures stopped proliferating,[1],27-30 PDs
same,hMSC life span / time of proliferation in culture,[1],extend hMSC lifespan
same,number of γH2AX DNA damage foci after irradiation,[2],enhance repair of DNA damage
"O=P(O)(O)C1CC2CCCNC2C1P(=O)(O)O (stereo not shown) [Compound A, 2-Azabicyclo-[4.3.0]nonane-8,9-diphosphonic acid]",number of γH2AX DNA damage foci after irradiation,[2],significant decrease
same,number of γH2AX DNA damage foci after irradiation,[2]; listed as compound A,significant reduction in DNA damage
same,affinity for / inhibitory potency on FPP synthase,[3],high affinity
same,affinity for / inhibitory potency on FPP synthase,[3]; listed as compound A,high
"O=P(O)(O)C1CC2CCCNC2C1P(=O)(O)O (stereo not shown) [Compound B, 2-Azabicyclo-[4.3.0]nonane-8,9-diphosphonic acid]",number of γH2AX DNA damage foci after irradiation,[2],not
same,affinity for / inhibitory potency on FPP synthase,[3],low affinity
same,affinity for / inhibitory potency on FPP synthase,[3]; listed as compound B,low
"O=P(O)(O)C(F)(Cc1cnc2ccccn12)P(=O)(O)O [Compound C, 1-fluoro-2-(imidazo-[1,2-a]pyridine-3-yl)-ethyl-bisphosphonic acid]","DNA repair (γH2AX DNA damage foci), concentration dependence","[2]; Compound C at increasing concentrations, 4 hours after irradiation",enhances DNA repair in a dose dependent manner
same,affinity for / inhibitory potency on FPP synthase,[3],high inhibitory potency
"CC(C)=CCC/C(C)=C/CC/C(C)=C/CO [FOH, Trans, trans farnesol]",effect of Zol on DNA damage after addition of prenylation intermediate,[2],reversed
same,Zol-mediated fin repair process after addition of FOH or GGOH,[4],abrogated
"CC(C)=CCC/C(C)=C/CC/C(C)=C/CC/C(C)=C/CO [GGOH, geranylgeraniol]",effect of Zol on DNA damage after addition of prenylation intermediate,[2],reversed
same,Zol-mediated fin repair process after addition of FOH or GGOH,[4],abrogated
O=P(O)(O)C(O)(Cc1cccnc1)P(=O)(O)O [Risedronate],population doublings after which cultures stopped proliferating,[1],29-34 PDs
same,hMSC life span / time of proliferation in culture,[1],extend hMSC lifespan
same,number of γH2AX DNA damage foci after irradiation,[2],enhance repair of DNA damage
